The record followed here is patent EP0502314A1, “Benzimidazol, medicaments containing them and process for their preparation” (Dr. Karl Thomae GmbH, priority 1991, dated 1992).

This assay deals with T1, Angiotensin II-Rezeptor (Rattus norvegicus, UniProt P25095).
T1 construct: Das Gewebe (Rattenlunge) wird in Tris-Puffer; from tissue; host or cells: rat lung homogenate (membrane pellet, 20,000 x g)
T1 sequence (P25095 1-359): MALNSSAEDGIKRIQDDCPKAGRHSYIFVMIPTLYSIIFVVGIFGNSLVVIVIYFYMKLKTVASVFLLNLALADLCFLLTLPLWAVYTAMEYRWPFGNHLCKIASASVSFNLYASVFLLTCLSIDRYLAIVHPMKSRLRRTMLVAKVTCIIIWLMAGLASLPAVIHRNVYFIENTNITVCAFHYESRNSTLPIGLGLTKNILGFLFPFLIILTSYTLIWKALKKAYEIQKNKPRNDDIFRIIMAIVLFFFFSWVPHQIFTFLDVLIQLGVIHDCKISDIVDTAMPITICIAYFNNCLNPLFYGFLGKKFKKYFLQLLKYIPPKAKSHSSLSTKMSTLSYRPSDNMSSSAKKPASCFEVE
Put plainly: Angiotensin II receptor binding (displacement of [125I]-angiotensin II, rat lung homogenate). The note with it: Rattenlunge homogenate; 50 pM [125I]-Angiotensin II; 60 Min. bei 37°C; read-out: IC₅₀. Details: species or system Ratte. Here is the method: Methodenbeschreibung Angiotensin II-Rezeptorbindung
Das Gewebe (Rattenlunge) wird in Tris-Puffer (50 mMol Tris, 150 mMol NaCl, 5 mMol EDTA, pH 7.40) homogenisiert und zweimal je 20 Min. bei 20.000 x g zentrifugiert. Das endgültige Pellet wird in Inkubations-Puffer (50 mMol Tris, 5 mMol MgCl₂, 0,2 % BSA, pH 7,40) 1:75, bezogen auf das Feuchtgewicht des Gewebes, resuspendiert. Je 0,1 ml Homogenat wird für 60 Min. bei 37°C mit 50 pM [125^I]-Angiotensin II (NEN, Dreieich, FRG) und steigenden Konzentrationen der Testsubstanz in einem Gesamtvolumen von 0,25 ml inkubiert. Die Inkubation wird durch rasche Filtration durch Glasfiber-Filtermatten beendet. Die Filter werden je 4 ml eiskaltem Puffer (25 mMol Tris, 2.5 mMol MgCl₂, 0,1 % BSA, pH 7,40) gewaschen. Die gebundene Radioaktivität wird in einem Gamma-Counter ermittelt. Aus der Dosis-Wirkungskurve wird der entsprechende IC₅₀-Wert ermittelt.
On the technique in general: Loss of bound radioactivity is the signal in a displacement assay; it reports binding, not function.

Structures are written as SMILES. Structures can show the parent of a compound that is named as a salt.

Take `CCCCc1nc2c(C)cc(NC(=O)NC3CCCCC3)cc2n1Cc1ccc(-c2ccccc2C(=O)O)cc1` [Substanz K, 4'-[[2-n-Butyl-6-(cyclohexylaminocarbonylamino)-4-methyl-benzimidazol-1-yl]-methyl]-biphenyl-2-carbonsäure-semi-trifluoracetat]: the IC50 was determined as 17 nM.
As for `CCCCc1nc2c(C)cc(NC(=O)C(C)C)cc2n1Cc1ccc(-c2ccccc2C(=O)O)cc1` [Substanz I, 4'-[[2-n-Butyl-6-(isopropylcarbonylamino)-4-methyl-benzimidazol-1-yl]-methyl]-biphenyl-2-carbonsäure], the figure is 6.6 nM; as for `CCCc1nc2c(C)cc(N3Cc4ccccc4C3=O)cc2n1Cc1ccc(-c2ccccc2-c2nnn[nH]2)cc1` [Substanz F, 4'-[[2-n-Propyl-4-methyl-6-(1-oxo-isoindolin-2-yl)-benzimidazol-1-yl]-methyl]-2-(1H-tetrazol-5-yl)-biphenyl], 5 nM; as for `CCCc1nc2c(C)cc(-c3cn4c(n3)CCCC4)cc2n1Cc1ccc(-c2ccccc2C(=O)O)cc1` [Substanz P, 4'-[(2-n-Propyl-4-methyl-6-(5,6,7,8-tetrahydro-imidazo-[1,2-a]pyridin-2-yl)-benzimidazol-1-yl)-methyl]-biphenyl-2-carbonsäure], 1.2 nM.
For `CCCCc1nc2c(C)ccc(OCCCn3ccnc3)c2n1Cc1ccc(-c2ccccc2C(=O)O)cc1` [Substanz A, 4'-[[2-n-Butyl-7-[3-(imidazol-1-yl)-propyloxy]-4-methyl-benzimidazol-1-yl]-methyl]-biphenyl-2-carbonsäure] the value was 510 nM; for `CCCc1nc2c(C)cc(-c3cn4cccnc4n3)cc2n1Cc1ccc(-c2ccccc2-c2nnn[nH]2)cc1` [Substanz O, 4'-[(2-n-Propyl-4-methyl-6-(imidazo[1,2-a]pyrimidin-2-yl)-benzimidazol-1-yl)-methyl]-2-(1H-tetrazol-5-yl)-biphenyl], 3.4 nM.
With `CCCc1nc2c(Cl)cc(-c3nc4ccccc4n3C)cc2n1Cc1ccc(-c2ccccc2-c2nn[nH]n2)cc1` [Substanz R, 4'-[(2-n-Propyl-4-chlor-6-(1-methylbenzimidazol-2-yl)-benzimidazol-1-yl)-methyl]-2-(1H-tetrahol-5-yl)-biphenyl-hydrochlorid], the IC50 is 20 nM.
In the case of `CCCc1nc2c(C)cc(-c3cn4c(n3)CCCC4)cc2n1Cc1ccc(-c2ccccc2-c2nnn[nH]2)cc1` [Substanz Q, 4'-[(2-n-Propyl-4-methyl-6-(5,6,7,8-tetrahydro-imidazo-[1,2-a]pyridin-2-yl)-benzimidazol-1-yl)-methyl]-2-(1H-tetrazol-5-yl)-biphenyl], the IC50 is 1.7 nM.
On to `CCCc1nc2c(C)cc(-c3nc4ccccc4n3C)cc2n1Cc1ccc(-c2ccccc2C(=O)O)cc1` [Substanz D, 4'-[[2-n-Propyl-4-methyl-6-(1-methylbenzimidazol-2-yl)-benzimidazol-1-yl]-methyl]-biphenyl-2-carbonsäure], for which the IC50 worked out at 3.7 nM.
As for `CCCc1nc2c(C)cc(-c3nc4cc(F)ccc4n3C)cc2n1Cc1ccc(-c2ccccc2C(=O)O)cc1` [Substanz N, 4'-[(2-n-Propyl-4-methyl-6-(1-methyl-5-fluor-benzimidazol-2-yl)-benzimidazol-1-yl)-methyl]-biphenyl-2-carbonsäure], the IC50 came out at 26 nM.
In the case of `CCCCc1nc2c(C)ccc(OCCCn3cnc4ccccc43)c2n1Cc1ccc(-c2ccccc2C(=O)O)cc1` [Substanz B, 4'-[[2-n-Butyl-7-[3-(benzimidazol-1-yl)-propyloxy]-4-methyl-benzimidazol-1-yl]-methyl]-biphenyl-2-carbonsäure-trifluoracetat], the IC50 is 52 nM.
Turning to `CCCc1nc2c(C)cc(-c3nc4ccccc4n3C)cc2n1Cc1ccc(-c2ccccc2-c2nnn[nH]2)cc1` [Substanz E, 4'-([2-n-Propyl-4-methyl-6-(1-methylbenzimidazol-2-yl)-benzimidazol-1-yl]-methyl]-2-(1H-tetrazol-5-yl)-biphenyl], the IC50 turned out to be 14 nM.
For `CCCCc1nc2c(C)cc(NC(=O)N3CCOCC3)cc2n1Cc1ccc(-c2ccccc2C(=O)O)cc1` [Substanz J, 4'-[[2-n-Butyl-4-methyl-6-(morpholinocarbonylamino)-benzimidazol-1-yl]-methyl]-biphenyl-2-carbonsäure] the value was 3.5 nM.
As for `CCCc1nc2c(C)cc(N3CCCCS3(=O)=O)cc2n1Cc1ccc(-c2ccccc2-c2nn[nH]n2)cc1` [Substanz G, 4'-[[2-n-Propyl-4-methyl-6-(butansultam-1-yl)-benzimidazol-1-yl]-methyl]-2-(1H-tetrazol-5-yl)-biphenyl], the IC50 came out at 1.2 nM.
Consider `CCCc1nc2c(C)cc(-c3cn4ccsc4n3)cc2n1Cc1ccc(-c2ccccc2C(=O)O)cc1` [Substanz S, 4'-[[2-n-Propyl-4-methyl-6-(imidazo[2,1-b]thiazol-6-yl)-benzimidazol-1-yl]-methyl]-biphenyl-2-carbonsäure], for which the IC50 was 7.8 nM.
On to `CCCCc1nc2c(C)ccc(OCCCCn3cnc4c3CCCC4)c2n1Cc1ccc(-c2ccccc2C(=O)O)cc1` [Substanz C, 4'-[[2-n-Butyl-4-methyl-7-[4-(tetrahydrobenzimidazol-1-yl)-butyloxy]-benzimidazol-1-yl]-methyl]-biphenyl-2-carbonsäure], for which the IC50 was 130 nM.
As for `CCCCc1nc2c(C)cc(N3C(=O)C(C)=C(C)C3=O)cc2n1Cc1ccc(-c2ccccc2C(=O)O)cc1` [Substanz H, 4'-[[2-n-Butyl-6-(2,3-dimethylmaleinsäureimino)-4-methyl-benzimidazol-1-yl]-methyl]-biphenyl-2-carbonsäure-semihydrat], the IC50 is 20 nM.
As to `CCCCc1nc2c(C)ccc(OCCCn3ccnc3)c2n1Cc1ccc(-c2ccccc2-c2nnn[nH]2)cc1` [Substanz L, 4'-[[2-n-Butyl-7-[3-(imidazol-1-yl)-propyloxy]-4-methyl-benzimidazol-1-yl]-methyl]-2-(1H-tetrazol-5-yl)-biphenyl], the IC50 is 240 nM.
As for `Cc1cc(-c2nc3ccccc3n2C)cc2c1nc(C1CC1)n2Cc1ccc(-c2ccccc2C(=O)O)cc1` [Substanz M, 4'-[(2-Cyclopropyl-4-methyl-6-(1-methylbenzimidazol-2-yl)-benzimidazol-1-yl)-methyl]-biphenyl-2-carbonsäure], the figure is 12 nM.
